Our source for the inhibition values is US20230080054A1 (ILDONG PHARMACEUTICAL CO., LTD., priority 2021, published 2023).

By inhibition is commonly meant how much of the control response was suppressed.

The assay has as its target T1, human ANO6 (Homo sapiens, UniProt Q4KMQ2).
T1 construct: expressed in transfected cells
T1 sequence (Q4KMQ2 1-931 isoform Q4KMQ2-2): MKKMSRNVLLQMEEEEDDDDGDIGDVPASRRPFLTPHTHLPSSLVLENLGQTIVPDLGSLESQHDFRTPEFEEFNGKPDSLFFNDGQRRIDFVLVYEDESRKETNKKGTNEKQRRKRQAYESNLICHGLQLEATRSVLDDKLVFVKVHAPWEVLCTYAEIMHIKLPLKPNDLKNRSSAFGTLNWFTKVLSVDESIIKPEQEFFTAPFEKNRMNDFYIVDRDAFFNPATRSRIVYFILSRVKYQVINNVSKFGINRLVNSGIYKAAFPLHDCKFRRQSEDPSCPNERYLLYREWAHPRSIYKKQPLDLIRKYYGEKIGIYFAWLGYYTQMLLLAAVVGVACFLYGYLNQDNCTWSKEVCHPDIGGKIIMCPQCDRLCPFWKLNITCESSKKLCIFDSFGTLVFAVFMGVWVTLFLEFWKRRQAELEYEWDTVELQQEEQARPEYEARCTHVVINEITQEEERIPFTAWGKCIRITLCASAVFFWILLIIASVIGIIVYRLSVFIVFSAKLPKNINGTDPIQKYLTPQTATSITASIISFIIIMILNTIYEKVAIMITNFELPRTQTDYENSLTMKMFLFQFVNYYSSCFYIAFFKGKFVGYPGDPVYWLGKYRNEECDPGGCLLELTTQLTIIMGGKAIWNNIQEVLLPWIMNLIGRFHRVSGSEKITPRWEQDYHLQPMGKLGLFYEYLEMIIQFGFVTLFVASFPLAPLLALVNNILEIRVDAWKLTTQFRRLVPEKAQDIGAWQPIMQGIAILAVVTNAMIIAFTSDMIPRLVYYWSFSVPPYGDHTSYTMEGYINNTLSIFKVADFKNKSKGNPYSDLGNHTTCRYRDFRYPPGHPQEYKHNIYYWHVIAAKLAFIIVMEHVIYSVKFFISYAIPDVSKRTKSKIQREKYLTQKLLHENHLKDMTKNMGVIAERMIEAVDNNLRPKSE
In words: LACT C2 assay (phosphatidylserine scramblase function assay). Type of assay: cell-based. The conditions noted are these: FRT cells expressing human ANO6, 10 μM ionomycin; for inhibition at 0.1 µM: test compound 100 nM, read-out: Inhibition Level 100 nM; for inhibition at 1 µM: test compound 1 μM, read-out: Inhibition Level 1 μM. The gist of the method:
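FRT cells stably expressing human ANO6 were pretreated with compound (1% DMSO) for 10 min, then stimulated with 10 μM ionomycin for 10 min. Surface phosphatidylserine was stained with 500 nM Lact-C2-GFP and quantified by imaging. Inhibition was scaled between unstimulated (100%) and ionomycin-only (0%) controls, averaged over triplicates.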

As to `Cc1cscc1-c1cnc(Nc2cccc(C(=O)Nc3cccc(F)c3)c2)nc1` [Compound 179, N-(3-fluorophenyl)-3-((5-(4-methylthiophen-3-yl)pyrimidin-2-yl)amino)benzamide], the inhibition at 0.1 µM is not below 60%.

For the molecule `CCN1CCN(c2cc(F)ccc2CNC(=O)c2cccc(Nc3ccc(-c4ccccc4)nn3)c2)CC1` [Compound 220, N-(2-(4-ethylpiperazin-1-yl)-4-fluorobenzyl)-3-((6-phenylpyridazin-3-yl)amino)benzamide], the inhibition at 0.1 µM was in the range of 30 to 60%. For `O=C(O)c1cccc(CCNC(=O)c2cccc(Nc3ncc(-c4cccc(F)c4)cn3)c2)c1` [Compound 129, 3-(2-(3-((5-(3-fluorophenyl)pyrimidin-2-yl)amino)benzamido)ethyl)benzoic acid], the inhibition at 0.1 µM was less than 30% and the inhibition at 1 µM was less than 30%. For the molecule `Cc1ccc(NC(=O)c2cccc(Nc3ncc(-c4cccc(F)c4)cn3)c2)cc1` [Compound A102], the inhibition at 0.1 µM is less than 30% and the inhibition at 1 µM was not below 60%. For the molecule `CN1CCN(Cc2ccc(NC(=O)c3cccc(Nc4ncc(-c5cccc(F)c5)cn4)c3)cc2)CC1` [Compound 135, 3-((5-(3-fluorophenyl)pyrimidin-2-yl)amino)-N-(4-((4-methylpiperazin-1-yl)methyl)phenyl)benzamide], the inhibition at 0.1 µM is less than 30% and the inhibition at 1 µM lay within 30 to 60%. Take `O=C(Nc1nnc(-c2ccccc2)[nH]1)c1cccc(Nc2ncc(-c3cccc(F)c3)cn2)c1` [Compound 194, 3-((5-(3-fluorophenyl)pyrimidin-2-yl)amino)-N-(5-phenyl-4H-1,2,4-triazol-3-yl)benzamide]: the inhibition at 0.1 µM is less than 30%. Take `O=C(NCc1ccc(F)c(C(F)(F)F)c1)c1cccc(Nc2ccc(-c3ccccc3)nn2)c1` [Compound 195, N-(4-fluoro-3-(trifluoromethyl)benzyl)-3-((6-phenylpyridazin-3-yl)amino)benzamide]: the inhibition at 0.1 µM was less than 30% and the inhibition at 1 µM is not below 60%.

With `CN1CCN(c2cc(F)ccc2CNC(=O)c2cccc(Nc3ccc(-c4ccccc4)nn3)c2)CC1` [Compound 222, N-(4-fluoro-2-(4-methylpiperazin-1-yl)benzyl)-3-((6-phenylpyridazin-3-yl)amino)benzamide], the inhibition at 0.1 µM is less than 30% and the inhibition at 1 µM is 30 to 60%. Consider `O=C(NCc1ccc(Cl)cc1Cl)c1cccc(Nc2ncc(-c3cccc(F)c3)cn2)c1` [Compound 207, N-(2,4-dichlorobenzyl)-3-((5-(3-fluorophenyl)pyrimidin-2-yl)amino)benzamide], for which the inhibition at 0.1 µM was less than 30% and the inhibition at 1 µM lay within 30 to 60%. The corresponding values for `Nc1ccccc1CCNC(=O)c1cccc(Nc2ncc(-c3cccc(F)c3)cn2)c1` [Compound 148, N-(2-aminophenethyl)-3-((5-(3-fluorophenyl)pyrimidin-2-yl)amino)benzamide] are less than 30% and less than 30%.

Regarding `CN(CCCNC(=O)c1cccc(Nc2ccc(-c3ccccc3)nn2)c1)Cc1ccccc1` [Compound A95], the inhibition at 0.1 µM is less than 30% and the inhibition at 1 µM lay in the range of 30 to 60%. The corresponding values for `CCN1CCN(c2cc(CNC(=O)c3cccc(Nc4ccc(-c5ccccc5)nn4)c3)ccc2F)CC1` [Compound 226, N-(3-(4-ethylpiperazin-1-yl)-4-fluorobenzyl)-3-((6-phenylpyridazin-3-yl)amino)benzamide] are less than 30% and less than 30%. On to `Cc1ccc(CNC(=O)c2cccc(Nc3ncc(-c4cccc(F)c4)cn3)c2)c(C)c1` [Compound 206, N-(2,4-dimethylbenzyl)-3-((5-(3-fluorophenyl)pyrimidin-2-yl)amino)benzamide], for which the inhibition at 0.1 µM was less than 30% and the inhibition at 1 µM fell in the range of 30 to 60%.

With `O=C(NCc1ccc(F)c(Br)c1)c1cccc(Nc2ccc(-c3ccccc3)nn2)c1` [Compound 201, N-(3-bromo-4-fluorobenzyl)-3-((6-phenylpyridazin-3-yl)amino)benzamide], the inhibition at 0.1 µM was less than 30% and the inhibition at 1 µM is 30 to 60%. The corresponding values for `CC(NC(=O)c1cccc(Nc2ccc(-c3ccccc3)nn2)c1)c1ccc(F)cc1` (centres unmarked) [Compound 233, N-(1-(4-fluorophenyl)ethyl)-3-((6-phenylpyridazin-3-yl)amino)benzamide] are less than 30% and less than 30%. On the same counts, the results for `O=C(NCc1ccccc1Br)c1cccc(Nc2ncc(-c3cccc(F)c3)cn2)c1` [Compound 216, N-(2-bromobenzyl)-3-((5-(3-fluorophenyl)pyrimidin-2-yl)amino)benzamide] are less than 30% and less than 30%. Turning to `O=C(Nc1ccc2c(c1)CCN2)c1cccc(Nc2ncc(-c3cccc(F)c3)cn2)c1` [Compound 181, 3-((5-(3-fluorophenyl)pyrimidin-2-yl)amino)-N-(indolin-5-yl)benzamide], the inhibition at 0.1 µM is less than 30%. Regarding `Cc1ccc(NC(=O)c2cccc(Nc3ncc(-c4cccc(F)c4)cn3)c2)cc1C` [Compound A92], the inhibition at 0.1 µM was less than 30% and the inhibition at 1 µM was not below 60%. Turning to `O=C(Nc1cccc(F)c1)c1cccc(NC2CCC(c3ccccc3)C2)c1` (centres unmarked) [Compound 187, N-(3-fluorophenyl)-3-((3-phenylcyclopentyl)amino)benzamide], the inhibition at 0.1 µM was less than 30%. For the molecule `CN1CCC(C2CC2NC(=O)c2cccc(Nc3ccc(-c4cccc(F)c4)cn3)c2)CC1` (centres unmarked) [Compound 144, 3-((5-(3-fluorophenyl)pyridin-2-yl)amino)-N-(2-(1-methylpiperidin-4-yl)cyclopropyl)benzamide], the inhibition at 0.1 µM was less than 30% and the inhibition at 1 µM was less than 30%. `O=C(Nc1ccccc1)c1cccc(Nc2ncc(-c3cccc(F)c3)cn2)c1` [Compound A93]: the inhibition at 0.1 µM was less than 30%. Regarding `O=C(NCc1ccccc1C(F)(F)F)c1cccc(Nc2ncc(-c3cccc(F)c3)cn2)c1` [Compound 204, 3-((5-(3-fluorophenyl)pyrimidin-2-yl)amino)-N-(2-(trifluoromethyl)benzyl)benzamide], the inhibition at 0.1 µM is less than 30% and the inhibition at 1 µM was in the range of 30 to 60%. In the case of `O=C(NC1CCCCCC1)c1cccc(Nc2ncc(-c3cccc(F)c3)cn2)c1` [Compound A94], the inhibition at 0.1 µM is less than 30%. With `CN1CCC(CNC(=O)c2cccc(Nc3ccc(-c4cccc(F)c4)cn3)c2)CC1` [Compound 140, 3-((5-(3-fluorophenyl)pyridin-2-yl)amino)-N-((1-methylpiperidin-4-yl)methyl)benzamide], the inhibition at 0.1 µM was less than 30% and the inhibition at 1 µM is less than 30%.
